Earlier results, collected in US6583130B1, “C13-substituted estra-1,3,5,(10)-trien-3-yl sulfamates, methods of preparing same, and pharmaceutical compositions containing these compounds” (Schering AG, priority 1999, dated 2003).

How the values were obtained:
[1] = test system: uterine growth; conditions: ovariectomized rats; Purohit et al. 1998
[2] = target: T1, sulfatase (Homo sapiens, UniProt P08842); conditions: as described in the cited literature
T1 sequence (P08842 22-583): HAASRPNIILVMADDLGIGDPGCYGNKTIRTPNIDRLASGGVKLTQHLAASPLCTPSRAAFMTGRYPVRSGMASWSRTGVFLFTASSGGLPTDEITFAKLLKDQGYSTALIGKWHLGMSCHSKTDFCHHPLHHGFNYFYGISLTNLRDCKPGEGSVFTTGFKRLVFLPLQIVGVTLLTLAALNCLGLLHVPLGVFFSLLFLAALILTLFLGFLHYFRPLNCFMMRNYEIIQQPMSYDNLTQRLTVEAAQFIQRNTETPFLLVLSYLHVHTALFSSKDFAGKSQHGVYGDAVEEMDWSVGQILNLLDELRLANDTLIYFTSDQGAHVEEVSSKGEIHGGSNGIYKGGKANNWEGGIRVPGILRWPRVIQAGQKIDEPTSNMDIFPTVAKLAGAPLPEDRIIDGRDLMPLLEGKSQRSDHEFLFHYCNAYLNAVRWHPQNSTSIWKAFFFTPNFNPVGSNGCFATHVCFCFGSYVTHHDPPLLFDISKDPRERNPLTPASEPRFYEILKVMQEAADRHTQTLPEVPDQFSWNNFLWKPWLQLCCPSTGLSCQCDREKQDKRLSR

[3] = test system: estrogenic effect; conditions: as described in the cited literature (Elger et al. 1995; WO 97/14712)

| sulfatase inhibition [2] | SMILES | estrogenic effect on uterine growth [1] | estrogenic effect [3] |
| --- | --- | --- | --- |
| potent sulfatase inhibitor | COc1cc2c(cc1OS(N)(=O)=O)CC[C@@H]1[C@@H]2CC[C@]2(C)C(=O)CC[C@@H]12 [2-methoxyestrone 3-O-sulfamate] | does not exhibit any estrogenic effect | – |
| sulfatase inhibitor | CC(=O)NS(=O)(=O)Oc1ccc2c(c1)CC[C@@H]1[C@@H]2CC[C@]2(C)C(=O)CC[C@@H]12 [N-acetylestrone 3-O-sulfamate] | – | strong estrogenic effect |

| SMILES | sulfatase inhibition [2] | estrogenic effect on uterine growth [1] | estrogenic effect [3] |
| --- | --- | --- | --- |
| C[C@]12CC[C@@H]3c4ccc(OS(N)(=O)=O)cc4CC[C@H]3[C@@H]1CCC2=O [estrone 3-O-sulfamate] | strong sulfatase inhibitor | – | strong estrogenic effect |
